From patent EP1220845B1, “ARYL-SULFONAMIDE SUBSTITUTED BENZIMIDAZOL DERIVATIVES AND USE OF SAID AS TRYPTASE INHIBITORS” (Boehringer Ingelheim Pharma GmbH & Co.KG, priority 1999, dated 2001)
Counter-ions that a name gives are not always drawn.

Molecular target: T1, rh beta Tryptase (Homo sapiens, UniProt Q15661)
T1 construct: purchased Promega
Experiment: Tryptase inhibition test (cleavage of chromogenic substrate, p-nitroaniline read at 405 nm)
Format: biochemical
Details: Tris HCl buffer 100 mM, calcium 5 mM, heparin, pH 7.4, 37°C; substrate N-p-Tosyl-Gly-Pro-Lys-para-nitroanilin 0.6 mM; 5 min preincubation, 5 min incubation; 0.91 U/ml enzyme
Procedure: Die erfindungsgemäßen Verbindungen zeichnen sich durch ihre Tryptase-inhibierende Wirksamkeit aus. Besagte Fähigkeit, die Tryptase zu inhibieren, wurde gemäß der nachfolgenden Testbeschreibung untersucht. Die Bestimmung wird in Tris HCI Puffer (100 mM), der zusätzlich Calcium (5 mM) und Heparin ([…]) enthält, bei pH 7.4 durchgeführt. Als Standard wird rh beta Tryptase eingesetzt, die beispielsweise von Promega käuflich zu erwerben ist. Als Substrat dient N-p-Tosyl-[…]-nitroanilin in einer Konzentration von 0.6 mM. Das Substrat wird durch Tryptase verdaut wobei p-Nitroanilin entsteht, das bei 405 nm gemessen werden kann. Üblicherweise wird eine Inkubationszeit von 5 Minuten und eine Inkubationstemperatur von 37°C gewählt. Als Enzymaktivität werden 0.91 U/ml eingesetzt. Die Bestimmung erfolgt in einem Autoanalyser (Cobas Bio) der Firma Hofmann LaRoche. Die potentiellen Hemmsubstanzen werden in Konzentrationen von 10 μM im Screening eingesetzt, wobei die Hemmung der Tryptase in Prozent angegeben wird. […] Nach 5-minütiger Vorinkubation der potentiellen Hemmsubstanzen, wird das Substrat zum […] Reaktion zugegeben, wobei die Bildung von p-Nitroanilin […]. […]

T1 sequence (Q15661 31-275): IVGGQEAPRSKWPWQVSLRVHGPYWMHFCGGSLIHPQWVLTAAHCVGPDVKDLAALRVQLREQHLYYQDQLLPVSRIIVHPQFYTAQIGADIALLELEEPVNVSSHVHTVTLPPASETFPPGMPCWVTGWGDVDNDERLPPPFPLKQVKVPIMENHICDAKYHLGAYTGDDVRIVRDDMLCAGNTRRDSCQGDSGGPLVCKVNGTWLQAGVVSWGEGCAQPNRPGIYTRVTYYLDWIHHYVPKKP

IC50: 0.011 µM
Structure (SMILES): CCN(CC)CCN(c1ccc2c(c1)nc(CCc1ccc(C(=N)N)cc1)n2C)S(=O)(=O)c1cccc2c(N(C)C)cccc12 [Beispiel 2, N-{2-[2-(4-Amidinophenyl)ethyl]-1-methyl-benzimidazol-5-yl}-N-diethylaminoethyl-(dansylamid)-dihydrochlorid]
